{
  "source": "patent US20240271127A1",
  "about": "“METHODS OF ENHANCING AND EXPEDITING EXPRESSION OF ANTIBODIES” (Aridis Pharmaceuticals, Inc., priority 2019, published 2024)",
  "tested_on": "UPR pathway in CHO-K1 cell line expressing Ire1-1642G and Fv2E-PERK",
  "assay": "Drug-inducible UPR pathway activation, RT-qPCR of UPR gene mRNA transcripts",
  "format": "cell-based, Chinese hamster",
  "settings": "CHO-K1 transfected with Ire1-1642G and Fv2E-PERK in combination; 1NM-PP1 0, 10 or 50 μM added 24 hours post-transfection",
  "experimental": "In FIG. 12A drug-inducible activation of UPR pathway promotes ER expansion signaling pathways in a dosage-dependent manner. […] At 24 hours post-transfection, cells were treated with varying concentrations of 1NM-PP1 (0, 10, or 50 μM). mRNA transcripts of UPR genes were measured by RT-qPCR of unspliced Xbp1 (Xbp1u), spliced Xbp1 (Xbp1s), Chop, Gadd34, and Atf4. […]\nReverse transcription real-time quantitative polymerase chain reaction (RT-qPCR). […] Quantification was by standard ddCt method.\n1NM-PP1 drug induction in CHO cells: Stable CHO cell lines expressing Ire1a 1642G or Fv2E-PERK alone or in combination were induced with 10 or 50 µM of 1NM-PP1. Gene expression measured by RT-qPCR was performed at 24h post-drug induction.\nA drug inducible UPR activation pathway was constructed in a CHO-K1 cell line transfected with plasmid containing constitutive promoter expressing Ire1-1642G or Fv2E-PERK alone or in combination. At 24 hours post-transfection, cells were treated with varying concentrations of 1NM-PP1 (0, 10 or 50 μM). mRNA transcripts of UPR genes were measured by RT-qPCR of unspliced Xbp1 (Xbp1u), spliced Xbp1 (Xbp1s), Chop, Gadd34, and Atf4.",
  "data": [
    {"smiles": "CC(C)(C)n1nc(Cc2cccc3ccccc23)c2c(N)ncnc21", "note": "[1NM-PP1]", "values": [
      {"measurement": "mRNA transcripts of UPR genes Xbp1u, CHOP, Gadd34 and Atf4 (RT-qPCR)", "value": "increased at higher concentrations"}
    ]}
  ]
}
